Assays:
[1] = tested on: murine bone marrow-derived macrophages; test: area under cytotoxicity dose-response curve (AUC (% cytotoxicity x dose, relative)); higher = more cytotoxic; conditions: duration: 6 days; dose range: 0.13-80 uM, 8 points
In short: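 Cytotoxicity is expressed as the area under the dose–response curve from GraphPad Prism version 10. To obtain it, primary murine bone marrow-derived macrophages were incubated for 6 days at 37 °C in 5% CO2 across final concentrations of 80–0.13 μM. Viability came from CellTiter-Glo luminescence, and percent cytotoxicity was normalised to vehicle and positive control wells.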

[2] = tested on: Mycobacterium tuberculosis CDC1551 (intracellular, in murine BMDM); test: area under intracellular growth-inhibition dose-response curve (AUC (% inhibition x dose, relative)); higher = more potent; conditions: duration: 6 days; dose range: 0.13-80 uM, 8 points
In short: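 In 384-well opaque plates, primary murine bone marrow-derived macrophages were infected with luciferase-expressing M. tuberculosis CDC1551 (multiplicity of infection 1, 1 h) 24 h after seeding, then treated for 6 days across final concentrations of 80–0.13 μM. Growth was measured by Bright-Glo luciferin assay, normalised to a reference drug control and the lowest-concentration wells. The reported value is the area under the growth-inhibition dose–response curve from GraphPad Prism.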

Compound | area under cytotoxicity dose-response curve [1] | area under intracellular growth-inhibition dose-response curve [2]
O=C(N/N=C/c1coc2ccccc2c1=O)c1ccncc1 | < 0 | 272
O=C(NC1CCCCCC1)c1ccc(Br)o1 | 27.7 | 231
CCCOc1ccccc1OCC(=O)N1CCN(S(=O)(=O)c2ccc(Cl)cc2)CC1 | 126 | 48.8
O=C(NC1CCCCCC1)c1ccco1 | 47.2 | 214
CCO.C[C@H]1c2cccc(O)c2C(=O)C2=C(O)[C@]3(O)C(O)=C(C(N)=O)C(=O)[C@@H](N(C)C)C3[C@@H](O)C21.Cl.O (some centres undefined) | 81.3 | 242
CC(NC(=O)Nc1ccc(Br)cc1)C(C)(C)C (centres undefined) | 55.3 | 228
CCOc1c2c(nc3ccc(Cl)cc13)CCC2 | 57.1 | 157
CCn1cc(CNC(=O)c2cc([N+](=O)[O-])c(C)c([N+](=O)[O-])c2)cn1 | 16.8 | 226
O=C(COc1ccc(Cl)cc1)NNC(=O)c1ccncc1 | 9.09 | 274
C[n+]1c2ccccc2nc2ccc(NCCO)cc21.[O-][Cl+3]([O-])([O-])[O-] | < 0 | 107
COc1ccc(/C=N/Nc2nc(-c3ccc(C)cc3)c(NC(C)=O)s2)cc1 | < 0 | 272
O=C(/C=C/c1cccs1)N1CCCC1 | 3.62 | 168
COCC(=O)Nc1nnc(Cc2ccc(OC)cc2)s1 | 21.6 | 159
CCC(=O)NC(=S)Nc1ccc(NC(=O)c2ccco2)cc1 | 64.5 | 233
CC1CCCC(/C=N/c2ccc(C(=O)O)c(O)c2)=C1O (centres undefined) | < 0 | 135
Cc1c([N+](=O)[O-])cc(C(=O)NCc2ccc(F)cc2)cc1[N+](=O)[O-] | < 0 | 252
COc1ccccc1C(CNC(=O)c1ccc(-c2ccccc2Cl)o1)N1CCCC1 (centres undefined) | 141 | 164
CN(C)c1ccc(S(=O)(=O)N2CCCCC2)cc1NC(=O)CCNC(=O)c1ccccc1Cl | < 0 | 67.5
O=C(c1cccc(C(F)(F)F)c1)N1CCCC1 | < 0 | 232
COC(=O)c1ccc2nc(C)cc(Nc3ccc(N(C)C)cc3)c2c1.Cl | < 0 | 243
Cc1ccc(/C=C2\SC(N3CCCC3)=NC2=O)cc1 | 22.9 | 220

Compound | area under cytotoxicity dose-response curve [1] | area under intracellular growth-inhibition dose-response curve [2]
CC1C/C(=C/c2ccncc2)C(=O)/C(=C/c2ccncc2)C1 (centres undefined) | 54.5 | < 0
CCOC(=O)c1c(-c2ccccc2)nc2ccc(C)cn12 | 58.7 | 203
Cc1ccc2ccc3ccc(C)nc3c2n1 | 160 | 29.4
COc1cc(/C=N/NC(=O)c2ccncc2)ccc1OC(C)=O | 37.6 | 273
O=C(/C=C/c1ccc(S(=O)(=O)N2CCOCC2)cc1)NCCc1ccc(C(F)(F)F)cc1 | 42 | 102
O=C(NCCC1=CCCCC1)NC12CC3CC(CC(C3)C1)C2 | 60.3 | 196
CCCn1nnc(NC(=S)NC(=O)c2ccccc2OC)n1 | 25.9 | 64.2
COc1ccc2nc(C)cc(N/N=C/c3cccc(OC)c3O)c2c1 | 69 | 124
CCNC(=S)Nc1ccc(OCc2nc3ccccc3s2)cc1 | 35.3 | 273
Cc1nnc(N2CCCCC2)c2ccccc12 | 15.8 | 117
COc1ccc2nc(C)cc(N/N=C/c3ccccc3)c2c1 | 97.6 | 136
Cn1nnnc1SCC1=C(C(=O)O)N2C(=O)C(NC(=O)Cn3nc(C(F)F)cc3C3CC3)C2SC1 (centres undefined) | 38.2 | 177
CC[C@@H](C)[C@@H]1CN([C@@H](C)CN2CCC[C@H]2CN2C(N)=NC[C@@H]2Cc2ccccc2)C(=N)N1CCc1ccc(Cl)c(Cl)c1 | < 0 | 167
CCNc1nc(NCC)nc(N/N=C/c2ccc([N+](=O)[O-])o2)n1 | 18 | 266
CSc1nsc(SCC(=O)N2CCCCC2)n1 | 59 | 93.5
CC1CCCCC1NC(=O)c1cc2ccccc2o1 (centres undefined) | 32.6 | 258
Cn1nc([N+](=O)[O-])nc1Oc1ccc(C(C)(C)C)cc1 | 40.1 | 206
CCOC(=O)c1c(-c2ccccc2)nc2cc(C)ccn12 | 1.58 | 147
O=C(c1cccs1)N1CCC(c2ccccc2)C1 (centres undefined) | < 0 | 189
Cc1ccc(C2=NN(C(=O)CCl)C(c3ccco3)C2)o1 (centres undefined) | 73.1 | 88.6
O=C(Nc1ccc(S(=O)(=O)Nc2nccs2)cc1)c1c(F)c(F)c(F)c(F)c1F | 64.8 | 82.5

Compound | area under cytotoxicity dose-response curve [1] | area under intracellular growth-inhibition dose-response curve [2]
O=C(NN=C1CCCCCCCCCCC1)c1ccncc1 | 73.9 | 262
Cc1c(C)c2cccnc2c2ncccc12 | 36.7 | 162
CC1CN(c2ccc(NC(=S)Nc3ccc(N4CC(C)OC(C)C4)cc3)cc2)CC(C)O1 (centres undefined) | 17.3 | 186
O=[N+]([O-])c1ccc(/C=N/Nc2nc(N3CCCC3)nc(N3CCCC3)n2)o1 | 171 | 168
COc1ccc(C(=O)Oc2cc(/C=N/NC(N)=S)ccc2OC)cc1 | 53.3 | 211
O=C(CCCOc1ccc(Cl)cc1Cl)Nc1ccccc1C(=O)O | 0.729 | 83.7
CCOC(=O)CCCc1ccc(/C(C)=N/NC(N)=S)cc1 | 65.1 | 156
Cc1cc(C)n(CC(=O)NC2C(=O)N3C(C(=O)O)=C(CSc4nnc(C)s4)CSC23)n1 (centres undefined) | 11.2 | 122
CC(C)(C)C(=O)/C(=C/c1cccc([N+](=O)[O-])c1)n1cncn1 | 157 | 8.55
COc1ccccc1/C=C1\SC(=S)N(CCC(=O)Nc2ccc(C(=O)O)c(O)c2)C1=O | < 0 | 124
CN(Cc1ccccc1)c1ccc2nnc(-c3ccccc3)n2n1 | < 0 | 169
CCC[C@@H](CN1CCC[C@H]1CN1C(N)=NC[C@@H]1Cc1ccccc1)N1C[C@@H](Cc2ccccc2)N(CCCC2CCCC2)C1=N | 52.7 | 200
O=Cc1c(Nc2cccc(C(F)(F)F)c2)nc2ccccn2c1=O | < 0 | 234
O=C(Nc1ccc(C(=O)Oc2ccccc2)c(O)c1)c1ccccc1 | 93.1 | 210
BrC(=C\c1ccccc1)/C=N/n1cnnc1 | 97.5 | 5.21
CC1=CCCC(C)(C)C1/C=C/C(C)=N/NC(=O)c1ccncc1 (centres undefined) | < 0 | 247
O=C(NCC1CCCCC1)c1ccc(Cl)nc1 | 2.72 | 258
Cc1nn(C(C)C(=O)NC2C(=O)N3C(C(=O)O)=C(CSc4nnnn4C)CSC23)cc1Cl (centres undefined) | 9.03 | 194
O=C(/C=C/c1ccc2c(c1)OCO2)N1CCCCC1 | 15.2 | 155
CCC12CN3CCN(CC(C3)/C1=N/NC(=O)c1ccncc1)C2 | 13.3 | 206
